# Tests used:
# Format in all cases: cell-based
# [1] = system: Staphylococcus aureus; test: Minimum inhibitory concentration (MIC) in vitro, agar dilution method, quality control strain; details: Staphylococcus aureus, ATCC27853
# Text: (§1) Hydrates Samples: • The 1/2 hydrates prepared according to Example 2; • Content (purity % wt): 99.0%; • The 1/12 hydrates prepared according to Example 253; • Content (purity % wt): 98.9%; • The 2/7 hydrates prepared according to Example 106; • Content (purity % wt): 98.8%; • The 2/5 hydrates prepared according to Example 162; • Content (purity % wt): 99.0%; • The 3/4 hydrates prepared according to Example 337; • Content (purity % wt): 98.8%; • Preparation: dissolved in DMSO, and further diluted with sterile distilled water to desired concentration. • The hydrates samples were supplied by Sichuan Beilike Biotechnology LTD.
# (§2) Anhydrous Sample: • The anhydrous compounds prepared according to Example 1. • Content (purity % wt): 98.6%; • Preparation: dissolved in DMSO, and further diluted with sterile distilled water to desired concentration; • The anhydrous sample was supplied by Sichuan Beilike Biotechnology LTD.
# (§3) Control Samples • Vancomycin: provided by Sichuan Beilike Biotechnology LTD, purchased from Eli Lilly Japan K.K. • Lot No.: WM16151 (production date: Apr. 10, 2007, expiration date: Apr. 9, 2009). • Specification: 500 mg/bottle; solubility (physicochemical properties): soluble in water. • Linezolid (LZ): provided by Sichuan Beilike Biotechnology LTD.
# (§4) Bacteria Strains • Clinically isolated strains: clinically isolated bacterial pathogens collected in Sichuan and Beijing areas from March 2007 to May 2008. • Species include: Staphylococcus aureus MRSA, Staphylococcus aureus MSSA, S. epidermidis MRSE, S. epidermidis MSSE, E. feacalis, and E. feacium, a total of 51 strains. • Quality control strains: Staphylococcus aureus […] strain kept in Sichuan Industrial Institute of Antibiotics, purchased from the medical testing center of the Ministry of Health, China.
# (§5) Experimental Method: • Measurement of the minimum inhibitory concentration (MIC) in vitro: • The minimum inhibitory concentration (MIC) of each test sample against test strains was measured by using the agar dilution method recommended by the U.S. National Committee for Clinical Laboratory Standards (CLSI/NCCIs).
# (§6) Based on the CLSI/NCCL's testing standard with respect to vancomycin and linezolid (see Table 6), the minimum inhibitory concentration (MIC) values of every strain were reported, and the MIC50 (the concentration that inhibits 50% of the different strains of bacteria), MIC90 (the concentration that inhibits 90% of the different strains of bacteria), and MICrange (the range of the MIC value of the tested strains) were observed.
# [2] = system: S. epidermidis MRSE; test: Minimum inhibitory concentration (MIC) in vitro, agar dilution method
# Text: as §1, §2, §3, §4, §5, §6
# [3] = system: E. feacium; test: as above
# Text: as §1, §2, §3, §4, §5, §6
# [4] = system: E. feacalis; test: as above
# Text: as §1, §2, §3, §4, §5, §6
# [5] = system: S. epidermidis MSSE; test: as above
# Text: as §1, §2, §3, §4, §5, §6
# [6] = system: Staphylococcus aureus MRSA; test: as above
# Text: as §1, §2, §3, §4, §5, §6
# [7] = system: Staphylococcus aureus MSSA; test: as above
# Text: as §1, §2, §3, §4, §5, §6
# [8] = Staphylococcus epidermidis, MRSE
smiles,measurement,setting,value
"CN[C@H](CC(C)C)C(=O)N[C@H]1C(=O)N[C@@H](CC(N)=O)C(=O)N[C@H]2C(=O)N[C@H]3C(=O)N[C@H](C(=O)N[C@H](C(=O)O)c4cc(O)cc(O)c4-c4cc3ccc4O)[C@H](O)c3ccc(c(Cl)c3)Oc3cc2cc(c3O[C@@H]2O[C@H](CO)[C@@H](O)[C@H](O)[C@H]2O[C@H]2C[C@](C)(N)[C@H](O)[C@H](C)O2)Oc2ccc(cc2Cl)[C@H]1O [Vancomycin, reference compound]",MIC,[1],1 µg/mL
same,MICrange,"[2]; S. ep MRSE (10 strains), clinically isolated",0.25 to 1 µg/mL
same,MIC50,[2]; [8],1 µg/mL
same,MIC90,[2]; [8],1 µg/mL
same,MIC,"[2]; Staphylococcus epidermidis, MRSE, strain S. ep MRSE4 (Table 8 No. 9)",1 µg/mL
same,MIC,"[2]; Staphylococcus epidermidis, MRSE, strain S. ep MRSE20 (Table 8 No. 6)",1 µg/mL
same,MIC,"[2]; Staphylococcus epidermidis, MRSE, strain S. ep MRSE87 (Table 8 No. 13)",0.25 µg/mL
same,MIC,"[2]; Staphylococcus epidermidis, MRSE, strain S. ep MRSE90 (Table 8 No. 10)",1 µg/mL
same,MIC,"[2]; Staphylococcus epidermidis, MRSE, strain S. ep MRSE101 (Table 8 No. 7)",1 µg/mL
same,MIC,"[2]; Staphylococcus epidermidis, MRSE, strain S. ep MRSE105 (Table 8 No. 11)",0.5 µg/mL
same,MIC,"[2]; Staphylococcus epidermidis, MRSE, strain S. ep MRSE140 (Table 8 No. 14)",1 µg/mL
same,MIC,"[2]; Staphylococcus epidermidis, MRSE, strain S. ep MRSE142 (Table 8 No. 12)",0.5 µg/mL
same,MIC,"[2]; Staphylococcus epidermidis, MRSE, strain S. ep MRSE210 (Table 8 No. 15)",1 µg/mL
same,MIC,"[2]; Staphylococcus epidermidis, MRSE, strain S. ep MRSE211 (Table 8 No. 8)",0.5 µg/mL
same,MIC50,[3],4 µg/mL
same,MIC90,[3],8 µg/mL
same,MICrange,"[3]; E. feacium (5 strains), clinically isolated",2 to 8 µg/mL
same,MIC,[3]; strain Efm 98 (Table 8 No. 21),4 µg/mL
same,MIC,[3]; strain Efm 171 (Table 8 No. 25),8 µg/mL
same,MIC,[3]; strain Efm 197 (Table 8 No. 22),4 µg/mL
same,MIC,[3]; strain Efm N3 (Table 8 No. 23),2 µg/mL
same,MIC,[3]; strain Efm N4 (Table 8 No. 24),8 µg/mL
same,MIC50,[4],1 µg/mL
same,MIC90,[4],2 µg/mL
same,MICrange,"[4]; E. feacalis (5 strains), clinically isolated",0.25 to 2 µg/mL
same,MIC,[4]; strain Efa 54 (Table 8 No. 20),1 µg/mL
same,MIC,[4]; strain Efa 116 (Table 8 No. 16),0.5 µg/mL
same,MIC,[4]; strain Efa 907 (Table 8 No. 19),1 µg/mL
same,MIC,[4]; strain Efa 3006 (Table 8 No. 18),2 µg/mL
same,MIC,[4]; strain Efa 33748 (Table 8 No. 17),0.25 µg/mL
same,MICrange,"[5]; S. ep MSSE (10 strains), clinically isolated",0.06 to 1 µg/mL
same,MIC50,[5]; Staphylococcus epidermidis,0.5 µg/mL
same,MIC90,[5]; Staphylococcus epidermidis,1 µg/mL
same,MIC,"[5]; Staphylococcus epidermidis, strain S. ep MSSE87 (Table 7 No. 23)",0.125 µg/mL
same,MIC,"[5]; Staphylococcus epidermidis, strain S. ep MSSE88 (Table 8 No. 5)",1 µg/mL
same,MIC,"[5]; Staphylococcus epidermidis, strain S. ep MSSE113 (Table 7 No. 24)",0.5 µg/mL
same,MIC,"[5]; Staphylococcus epidermidis, strain S. ep MSSE116 (Table 7 No. 25)",0.125 µg/mL
same,MIC,"[5]; Staphylococcus epidermidis, strain S. ep MSSE118 (Table 8 No. 2)",1 µg/mL
same,MIC,"[5]; Staphylococcus epidermidis, strain S. ep MSSE119 (Table 7 No. 27)",0.125 µg/mL
same,MIC,"[5]; Staphylococcus epidermidis, strain S. ep MSSE137 (Table 8 No. 4)",1 µg/mL
same,MIC,"[5]; Staphylococcus epidermidis, strain S. ep MSSE140 (Table 8 No. 3)",0.5 µg/mL
same,MIC,"[5]; Staphylococcus epidermidis, strain S. ep MSSE142 (Table 7 No. 26)",0.06 µg/mL
same,MIC,"[5]; Staphylococcus epidermidis, strain S. ep MSSE153 (Table 8 No. 1)",0.5 µg/mL
same,MICrange,"[6]; S. MRSA (10 strains), clinically isolated",0.5 to 1 µg/mL
same,MIC50,"[6]; Staphylococcus aureus, MRSA",1 µg/mL
same,MIC90,"[6]; Staphylococcus aureus, MRSA",1 µg/mL
same,MIC,"[6]; Staphylococcus aureus, MRSA, strain S. MRSA 29 (Table 7 No. 15)",0.5 µg/mL
same,MIC,"[6]; Staphylococcus aureus, MRSA, strain S. MRSA 101 (Table 7 No. 14)",0.5 µg/mL
same,MIC,"[6]; Staphylococcus aureus, MRSA, strain S. MRSA 201 (Table 7 No. 13)",1 µg/mL
same,MIC,"[6]; Staphylococcus aureus, MRSA, strain S. MRSA B27 (Table 7 No. 21)",1 µg/mL
same,MIC,"[6]; Staphylococcus aureus, MRSA, strain S. MRSA B105 (Table 7 No. 17)",1 µg/mL
same,MIC,"[6]; Staphylococcus aureus, MRSA, strain S. MRSA B143 (Table 7 No. 19)",0.5 µg/mL
same,MIC,"[6]; Staphylococcus aureus, MRSA, strain S. MRSA B151 (Table 7 No. 20)",1 µg/mL
same,MIC,"[6]; Staphylococcus aureus, MRSA, strain S. MRSA B164 (Table 7 No. 16)",1 µg/mL
same,MIC,"[6]; Staphylococcus aureus, MRSA, strain S. MRSA B199 (Table 7 No. 22)",1 µg/mL
same,MIC,"[6]; Staphylococcus aureus, MRSA, strain S. MRSA B617 (Table 7 No. 18)",5 µg/mL
same,MICrange,"[7]; S. MSSA (11 strains), clinically isolated",0.5 to 1 µg/mL
same,MIC50,"[7]; Staphylococcus aureus, MSSA",1 µg/mL
same,MIC90,"[7]; Staphylococcus aureus, MSSA",1 µg/mL
same,MIC,"[7]; Staphylococcus aureus, MSSA, strain S. MSSA 123 (Table 7 No. 3)",0.5 µg/mL
same,MIC,"[7]; Staphylococcus aureus, MSSA, strain S. MSSA 187 (Table 7 No. 7)",0.5 µg/mL
same,MIC,"[7]; Staphylococcus aureus, MSSA, strain S. MSSA 195 (Table 7 No. 6)",1 µg/mL
same,MIC,"[7]; Staphylococcus aureus, MSSA, strain S. MSSA 195 (Table 7 No. 12)",1 µg/mL
same,MIC,"[7]; Staphylococcus aureus, MSSA, strain S. MSSA 201 (Table 7 No. 11)",1 µg/mL
same,MIC,"[7]; Staphylococcus aureus, MSSA, strain S. MSSA 232 (Table 7 No. 2)",0.5 µg/mL
same,MIC,"[7]; Staphylococcus aureus, MSSA, strain S. MSSA 275 (Table 7 No. 10)",1 µg/mL
same,MIC,"[7]; Staphylococcus aureus, MSSA, strain S. MSSA 466 (Table 7 No. 8)",0.5 µg/mL
same,MIC,"[7]; Staphylococcus aureus, MSSA, strain S. MSSA 519 (Table 7 No. 9)",1 µg/mL
same,MIC,"[7]; Staphylococcus aureus, MSSA, strain S. MSSA 520 (Table 7 No. 4)",0.5 µg/mL
same,MIC,"[7]; Staphylococcus aureus, MSSA, strain S. MSSA 580 (Table 7 No. 5)",1 µg/mL
